Test system: 282377-053-R-J1-PDC complex spheroid viability
Test: Anticancer human tumor 282377-053-R-J1-PDC patient-derived colon adenocarcinoma cell line growth inhibition [RAS]
Conditions: for IC50: curve of first compound; for viability, T/C: stronger effect = lower value
Text: RAS pathway inhibitors in Combinations in Complex Spheroids
A high-throughput screen of multi-cell type tumor spheroids was designed to identify active combinations of RAS pathway inhibitors and targeted small molecules. Complex spheroids include a stromal component modeled by human endothelial cells (HUVEC) and fibroblasts modeled by human mesenchymal stem cells (MSCs). The concentration ranges selected for each drug and investigational agent were based upon clinically achievable concentrations if the clinical Cmax of the agent was known.
Compounds. The drugs and investigational agents: abemaciclib (NSC768073), cobimetinib (NSC768068), divarasib (GDC6063, NSC841802), docetaxel (NSC628503), GDC-1971 (RLY-1971, NSC841576), gemcitabine (NSC613327), inavolisib (NSC800729), ipatasertib (NSC767898), KB-0742 (NSC834161), MRTX-1133 (NSC836407), osimertinib (NSC779217), RMC-4630 (NSC839698), RMC-6236 (NSC851965), RMC-6291 (NSC852671), Ro-3306 (NSC812927), sapanisertib (NSC764658), SN-38 (NSC673596), staurosporine (NSC755774), SY5609 (NSC837396), and tovorafenib (DAY101, NSC766906), were obtained from the National Cancer Institute (NCI) Developmental Therapeutics Program Chemical Repository. The FDA-approved anticancer drug set is available from the NCI Developmental Therapeutics Program. […] The stock solutions were prepared in dimethyl sulfoxide (DMSO, Sigma-Aldrich, St. Louis, MO, cat. D2650) at 800-fold the tested concentration and stored at -70 degrees C prior to their use. All drugs and investigational agents were tested over a range starting from a high concentration at or near the clinical Cmax and decreasing in half-log increments. If the clinical Cmax for an agent had not been determined, the highest concentration tested was 10 microM.
Cell Culture. All cells were maintained in an incubator at 37 degrees C and 5% CO2 with 95% humidity. The PDC lines were cultured according to standard operating procedures established by the NCI PDMR. All PDCs were thawed and cultured in Matrigel-coated flasks prepared with a working solution of 1X Ham's F-12 nutrient mix, without supplementation (Invitrogen, Waltham, MA, cat. 11765054), 100 U/mL penicillin-streptomycin (Invitrogen, cat. 15140122), and 2.5% Matrigel (Corning Inc., Corning, NY, cat. 354248) for the first three passages. The 362531-283-R-J2-PDC and 782815-120-R-J1-PDC lines were cultured in 6C/Colon 1B media, which includes advanced DMEM/F-12 (Thermo Fisher Scientific, cat. 12634028), 10 mM HEPES (Thermo Fisher Scientific, cat. 15630080), 1X GlutaMAX supplement (Thermo Fisher Scientific, cat. 35050061), 0.1 mg/mL primocin (InvivoGen, San Diego, CA, cat. ant-pm-2), 10% defined fetal bovine serum, heat inactivated (HyClone Laboratories Inc., Logan, UT, cat. SH30070.03HI), 50% L-WRN conditioned media (ATCC, cat. CRL-3276), 1.25 mM N-Acetyl-L-cysteine (Sigma-Aldrich, cat. A9165), 10 mM nicotinamide (Sigma-Aldrich, cat. N0636), 1X B-27 supplement (Thermo Fisher Scientific, cat. 17504044), 1X N-2 supplement (Thermo Fisher Scientific, cat. 17502048), 50 ng/mL human EGF (Thermo Fisher Scientific, cat. PHG0311), and 10 microM Y-27632 dihydrochloride (Tocris Bioscience, cat. 1254). The K12877-001-R-J1-PDC line was cultured in 6I media, which includes all 6C/Colon 1B media plus 10 ng/mL human FGF-10 (PeproTech, cat. 100-26), 1 ng/mL human FGF-2 (PeproTech, cat. 100-18B), 1 µM prostaglandin E2 (Tocris Bioscience, cat. 2296), […] hydrocortisone (Sigma-Aldrich, cat. H4001), and […] bovine insulin (Sigma-Aldrich, cat. I6634). The K86415-001-R-J1-PDC line was cultured in 6D media, which includes all 6C/Colon 1B media components minus the L-WRN conditioned media. The 485176-168-R4-J1-PDC was cultured in PANC media, which includes all 6C/Colon 1B media plus 100 ng/mL human FGF-10 (PeproTech, cat. 100-26), 500 nM SB-431542 (Selleckchem, cat. S1067), and 10 nM gastrin (Tocris Bioscience, cat. 3006). […]
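Further: spheroids exposed to agents for seven days before readout.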
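Wherever viability, T/C is given: luminescence viability as percent of DMSO vehicle control wells.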

CCc1c2c(nc3ccc(O)cc13)-c1cc3c(c(=O)n1C2)COC(=O)[C@]3(O)CC + C=CC(=O)N1CCN(c2nc(OCC3CCCN3C)nc3c(F)c(-c4nc(N)cc(C)c4C(F)(F)F)c(Cl)cc23)C(C)C1
IC50 (second compound 0.00316 µM): > 300 nM | IC50 (second compound 0.01 µM): > 300 nM | IC50 (second compound 0.0316 µM): > 300 nM | IC50 (second compound 0.1 µM): > 300 nM | IC50 (second compound 0.316 µM): > 300 nM | IC50 (second compound 1 µM): > 300 nM | viability, T/C (second compound 0.00316 µM, first compound 0.000949 µM): 117% | viability, T/C (second compound 0.00316 µM, first compound 0.003 µM): 122% | viability, T/C (second compound 0.00316 µM, first compound 0.00949 µM): 122% | viability, T/C (second compound 0.00316 µM, first compound 0.03 µM): 99.6% | viability, T/C (second compound 0.00316 µM, first compound 0.0949 µM): 87.7% | viability, T/C (second compound 0.00316 µM, first compound 0.3 µM): 59% | viability, T/C (second compound 0.01 µM, first compound 0.000949 µM): 109% | viability, T/C (second compound 0.01 µM, first compound 0.003 µM): 119% | viability, T/C (second compound 0.01 µM, first compound 0.00949 µM): 95.1% | viability, T/C (second compound 0.01 µM, first compound 0.03 µM): 93.9% | viability, T/C (second compound 0.01 µM, first compound 0.0949 µM): 79.4% | viability, T/C (second compound 0.01 µM, first compound 0.3 µM): 66.1% | viability, T/C (second compound 0.0316 µM, first compound 0.000949 µM): 99.2% | viability, T/C (second compound 0.0316 µM, first compound 0.003 µM): 109% | viability, T/C (second compound 0.0316 µM, first compound 0.00949 µM): 113% | viability, T/C (second compound 0.0316 µM, first compound 0.03 µM): 93.2% | viability, T/C (second compound 0.0316 µM, first compound 0.0949 µM): 87% | viability, T/C (second compound 0.0316 µM, first compound 0.3 µM): 61.7% | viability, T/C (second compound 0.1 µM, first compound 0.000949 µM): 115% | viability, T/C (second compound 0.1 µM, first compound 0.003 µM): 126% | viability, T/C (second compound 0.1 µM, first compound 0.00949 µM): 124% | viability, T/C (second compound 0.1 µM, first compound 0.03 µM): 85.8% | viability, T/C (second compound 0.1 µM, first compound 0.0949 µM): 97.8% | viability, T/C (second compound 0.1 µM, first compound 0.3 µM): 65.1% | viability, T/C (second compound 0.316 µM, first compound 0.000949 µM): 128% | viability, T/C (second compound 0.316 µM, first compound 0.003 µM): 114% | viability, T/C (second compound 0.316 µM, first compound 0.00949 µM): 123% | viability, T/C (second compound 0.316 µM, first compound 0.03 µM): 98.6% | viability, T/C (second compound 0.316 µM, first compound 0.0949 µM): 89.7% | viability, T/C (second compound 0.316 µM, first compound 0.3 µM): 64.2% | viability, T/C (second compound 1 µM, first compound 0.000949 µM): 135% | viability, T/C (second compound 1 µM, first compound 0.003 µM): 126% | viability, T/C (second compound 1 µM, first compound 0.00949 µM): 106% | viability, T/C (second compound 1 µM, first compound 0.03 µM): 94.2% | viability, T/C (second compound 1 µM, first compound 0.0949 µM): 95.2% | viability, T/C (second compound 1 µM, first compound 0.3 µM): 61.2%
